Columns and labels:
[1] = biological target: T1, PR (progesterone receptor) (Homo sapiens, UniProt P06401); assay: PR binding study
T1 sequence (P06401 1-933): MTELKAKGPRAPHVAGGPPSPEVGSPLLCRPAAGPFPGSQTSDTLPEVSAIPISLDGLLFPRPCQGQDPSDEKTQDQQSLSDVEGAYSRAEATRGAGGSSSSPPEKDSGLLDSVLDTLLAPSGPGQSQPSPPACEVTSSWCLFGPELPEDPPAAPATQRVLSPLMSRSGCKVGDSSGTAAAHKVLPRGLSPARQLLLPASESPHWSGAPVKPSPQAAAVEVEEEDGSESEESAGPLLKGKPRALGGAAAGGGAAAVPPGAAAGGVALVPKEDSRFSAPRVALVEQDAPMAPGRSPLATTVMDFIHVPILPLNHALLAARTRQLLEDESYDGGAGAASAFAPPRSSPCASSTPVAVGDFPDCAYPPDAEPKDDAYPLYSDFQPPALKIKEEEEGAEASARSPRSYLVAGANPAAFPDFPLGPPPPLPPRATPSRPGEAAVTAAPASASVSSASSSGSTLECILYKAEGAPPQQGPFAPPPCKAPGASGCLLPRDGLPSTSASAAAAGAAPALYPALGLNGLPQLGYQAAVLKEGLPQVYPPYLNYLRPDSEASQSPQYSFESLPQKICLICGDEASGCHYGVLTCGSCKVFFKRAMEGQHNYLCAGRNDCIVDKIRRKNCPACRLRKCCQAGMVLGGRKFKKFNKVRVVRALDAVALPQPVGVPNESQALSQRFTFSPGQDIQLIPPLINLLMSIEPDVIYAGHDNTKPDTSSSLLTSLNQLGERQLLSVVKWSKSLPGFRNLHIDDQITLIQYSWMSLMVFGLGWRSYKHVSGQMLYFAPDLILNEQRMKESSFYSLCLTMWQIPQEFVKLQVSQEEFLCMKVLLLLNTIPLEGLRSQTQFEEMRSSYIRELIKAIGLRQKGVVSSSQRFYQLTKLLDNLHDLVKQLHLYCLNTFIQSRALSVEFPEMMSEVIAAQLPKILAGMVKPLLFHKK
Description: The following abbreviations are used in Table II: MR, mineralocorticoid receptor; GR, glucocorticoid receptor; and PR, progesterone receptor.

[2] = test system: CA77 cells; assay: CA77 cell microarray profiling; type: cell-based, rat
Method: In order to reduce false positives, progesterone, estradiol, and aldosterone served as out-groups for non-specific effects. Samples were collected at both 6 hours and 24 hours after contacting the CA77 cells with a compound.

[3] = test system: CA77 cells; assay: CA77 cell assay, real-time RT-PCR (TaqMan); type: cell-based, rat; conditions: CA77 cells
Method: Assay: CA77 cells were plated into 96 well tissue culture dishes at a density of 8×10^4 cells per well in 200 μl of PM and the cultures maintained in a humidified air atmosphere (7.5% CO2) at 37° C. This media was aspirated after 24 hours and replaced with 200 μl of GM and the cultures incubated as before, for an additional 48 hours, at which time the cultures were at approximately 90% confluency.
For the evaluation of agonist activity, the GM was aspirated, replaced with 200 μl of fresh GM containing concentrations of a drug ranging from 0.1 nM to 10,000 nM in a 10-fold dilution series. Control wells of 0 nM drug in GM and 0.1% DMSO in GM were included in the series for each drug. Each drug concentration and the two controls were evaluated on 4 wells. The cultures were maintained in a humidified air atmosphere (7.5% CO2) at 37° C. for 24 hours.
Control wells of 0 nM drug in GM containing 250 nM corticosterone and 0.1% DMSO in GM (without corticosterone) were included in the series for each drug. Each drug concentration and the two controls were evaluated on 4 wells. The cultures were maintained in a humidified air atmosphere (7.5% CO2) at 37° C. for 24 hours.
Lysis of Cells and Isolation of mRNA: Two methods were employed for the lysis of the cells and the isolation of mRNA at the end of the 24-hour incubation with the drugs.
One method was the mRNA Catcher™ Method (using Kit number 37001, sold by Invitrogen Corporation). The GM was aspirated from the cells, the cell monolayer was washed once with PBS (product number 10010, sold by Invitrogen Corporation), and then the cells were lysed in 30 μl of the kit lysis buffer containing 1% β-ME for 5 minutes at room temperature. The lysates were snap frozen in the 96-well plate by placing the plate on dry ice pellets, and the plate was then stored at −80° C.
The lysates were thawed at room temperature and then transferred into individual wells in the mRNA Catcher™ plate. The plate was covered and incubated for 90 minutes at room temperature for RNA hybridization. […]

C[C@@H]1C[C@H]2[C@@H]3CCC4=CC(=O)C=C[C@]4(C)[C@@]3(F)[C@@H](O)C[C@]2(C)[C@@]1(O)C(=O)CO [Dexamethasone, dexamethasone]
IC50 [1]: > 1 µM | Sult1a1 up-regulation as detected by microarray [2]: 11 fold | Sult1a1 up-regulation as detected by RT-PCR [3]: 158 fold

From US20100040552A1, “METHODS TO EVALUATE GLUCOCORTICOID RECEPTOR AGONISTS AND ANTAGONISTS FOR EFFECTS ON NEURON-LIKE CELLS” (ROSETTA INPHARMATICS LLC, priority 2005, published 2010)
